Assays:
Aβ1–42 fibrils = target: T1, Aβ1–42 fibrils (Homo sapiens, UniProt P05067); experiment: Fluorescence binding assay of 5 with preformed Aβ1–42 fibrils; settings: preformed Aβ1–42 aggregates in PBS, single site binding model
T1 construct: Commercially available amyloid peptide Aβ1-42; purchased
Procedure: For assessing the ability of 5 to bind Aβ plaques; preliminary binding assays with preformed Aβ1–42 fibrils were performed in PBS. […] Additionally, it is also noteworthy that no fluorescence was observed using Aβ aggregates alone in PBS following excitation at 392 nm (a negative control).
Scientific Reports Version of August 4, 2016
Preparation of Aβ fibrils.
Commercially available amyloid peptide Aβ1-42 (433 µg) was gently dissolved in PBS (1 mL, pH 7.4, 100 µM)5. The solution was incubated for 36-48 h at 37°C with continuous gentle shaking to avoid gel formation at the meniscus. The aggregated peptide suspension was stored at -80°C until needed (the […]
Binding of 5 with Aβ fibrils
In vitro binding assays to preformed fibrils were performed using literature procedures. […]
indicating binding to Aβ aggregates, similar to enhancement in fluorescence of thioflavin-T in PBS (a positive control; data not shown). Additionally, it is also noteworthy that no fluorescence was observed using Aβ aggregates alone in PBS upon excitation at 410 nm (a negative control). All measurements were made in triplicates; fluorescence of either 5 alone or fibrils at a given concentration was subtracted. […]
SI Figure 2. […] All measurements were made in triplicates; fluorescence of either 5 alone or fibrils at a given concentration was subtracted. […]

Aβ plaques = Aβ plaques (Homo sapiens, UniProt P05067); experiment: MicroPET/CT imaging in APP/PS1 and WT mice; type: in vivo; settings: for distribution volume ratio (DVR): cortical ROI, cerebellum reference, RefLogan
Aβ plaques, sequence (P05067 672-711 limits assumed): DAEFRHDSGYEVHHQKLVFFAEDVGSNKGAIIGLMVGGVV
Procedure: To directly access the potential of [^18F]-9 to bind Aβ plaques in vivo, we performed microPET/CT imaging in age-matched APP^+/−/PS1^+/− mice (n = 3) compared their WT counterparts, 5 min-2 h post tail-vein injection. […] Time activity curves (TAC) also indicated higher retention of activity within transgenic mice brains compared with their WT counterparts (Fig. 10). Additionally, ROI (cortical regions) were also analyzed using linearized method with a reference region (cerebellum) via Reference Logan plot (RefLogan), and distribution volume ratios (DVR) were obtained. The analysis indicated a statistically significant DVR value of 1.18 for transgenic mice brain compared with that of 1.03 for WT brains. These smaller differences in DVR values of targeted regions in transgenic mice compared with that of WT counterparts could also be attributed to a lack of true negative reference region in aged PS1/APP mice[57]. […] The differences between these tracers in this rodent model could be attributed to ability of [^18F]-9 for targeting both diffuse and fibrillary plaques. To further evaluate, whether or not [^18F]-9 offers significant advantage over other approved tracers, the agent would need to be further investigated for its performance in other AD rodent models (APP23 and Tg2576).
Scientific Reports Version of August 4, 2016 approved guidelines. 15-month-old APP+/-/PS1+/- mice were imaged using intravital multiphoton microscopy to assess pharmacokinetic profiles of the 5. The thinned-skull cranial windows were prepared on the day prior to imaging, as previously described16-18. Briefly, mice were anesthetized under volatile isoflurane (2% induction, 1.5% maintenance), the scalp and periosteum were removed to expose the skull.
A speed drill and microsurgical blade (Surgistar) were used to thin the skull until the skull window ([…]
For imaging 5 labeled plaques, two-photon fluorescence was generated with 800 nm excitation, and fluorescent emission was detected in the range of 435-485nm. […]

T1 sequence (P05067 672-713 limits assumed): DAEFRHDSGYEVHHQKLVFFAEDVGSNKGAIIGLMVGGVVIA

Compound: CN(C)c1ncc(/C=C\c2nc3cc(OCCF)ccc3[se]2)cn1 [compound 5, (Z)-5-(2-(5-(2-fluoroethoxy)benzo[d][1,3]selenazol-2-yl)vinyl)-N,N-dimethylpyrimidin-2-amine]
- Kd (Aβ1–42 fibrils): 1.58 ± 0.05 nM

Compound: CN(C)c1ncc(/C=C\c2nc3cc(OCC[18F])ccc3[se]2)cn1 [[^18F]-9]
- higher retention in transgenic mice brains vs WT (Aβ plaques; APP+/−/PS1+/− vs WT mice, n = 3, p < 0.05): 1.2 folds
- distribution volume ratio (DVR) (Aβ plaques; WT brains): 1.03
- distribution volume ratio (DVR) (Aβ plaques; transgenic mice brain): 1.18
